Data taken from the NIST ThermoML archive (doi:10.1021/je034208m).

Assay: xn = mol fraction of the nth substance listed
Details: 101.33 kPa, Liquid; for speed of sound: Sing-around technique in a fixed-path interferometer

CCCC(C)O (stereo unspecified) [pentan-2-ol] + CCCCCCCCCC
Details | mass density, 293.15 K [kg/m3] | mass density, 298.15 K [kg/m3] | mass density, 303.15 K [kg/m3] | speed of sound, 293.15 K [m/s] | speed of sound, 298.15 K [m/s] | speed of sound, 303.15 K [m/s] | viscosity, 293.15 K [mPa·s] | viscosity, 298.15 K [mPa·s] | viscosity, 303.15 K [mPa·s]
x1 = 0.0487 | 731.62 | 727.76 | 723.89 | 1251 | 1231 | 1211 | 0.914 | 0.845 | 0.779
x1 = 0.0987 | 733.41 | 729.53 | 725.62 | 1248 | 1228 | 1209 | 0.912 | 0.844 | 0.782
x1 = 0.2043 | 738.14 | 734.23 | 730.28 | 1243 | 1223 | 1204 | 0.956 | 0.882 | 0.81
x1 = 0.2996 | 742.88 | 738.94 | 734.96 | 1239 | 1220 | 1200 | 0.989 | 0.909 | 0.842
x1 = 0.4006 | 748.67 | 744.7 | 740.69 | 1236 | 1216 | 1197 | 1.084 | 0.99 | 0.883
x1 = 0.5017 | 755.31 | 751.3 | 747.25 | 1233 | 1214 | 1194 | 1.149 | 1.044 | 0.952
x1 = 0.6002 | 762.88 | 758.83 | 754.73 | 1232 | 1213 | 1193 | 1.3 | 1.166 | 1.053
x1 = 0.6985 | 771.67 | 767.58 | 763.44 | 1233 | 1214 | 1194 | 1.531 | 1.352 | 1.201
x1 = 0.7992 | 782.4 | 778.29 | 774.12 | 1237 | 1217 | 1198 | 1.914 | 1.646 | 1.439
x1 = 0.8996 | 794.55 | 790.46 | 786.3 | 1242 | 1223 | 1204 | 2.626 | 2.214 | 1.888
x1 = 0.95 | 801.5 | 797.43 | 793.28 | 1246 | 1228 | 1209 | 3.205 | 2.651 | 2.244
x1 = 1 | 809.04 | 805.01 | 800.9 | 1250 | 1232 | 1214 | 4.001 | 3.273 | 2.708

CCCC(C)O (stereo unspecified) [pentan-2-ol] + CCCCCCCCCCCC
Details | mass density, 293.15 K [kg/m3] | mass density, 298.15 K [kg/m3] | mass density, 303.15 K [kg/m3] | speed of sound, 293.15 K [m/s] | speed of sound, 298.15 K [m/s] | speed of sound, 303.15 K [m/s] | viscosity, 293.15 K [mPa·s] | viscosity, 298.15 K [mPa·s] | viscosity, 303.15 K [mPa·s]
x1 = 0.049 | 749.65 | 745.96 | 742.26 | 1294 | 1275 | 1256 | 1.443 | 1.316 | 1.206
x1 = 0.0965 | 750.77 | 747.03 | 743.3 | 1291 | 1271 | 1252 | 1.441 | 1.312 | 1.201
x1 = 0.2065 | 753.81 | 750.05 | 746.25 | 1284 | 1265 | 1245 | 1.438 | 1.307 | 1.194
x1 = 0.2993 | 756.86 | 753.06 | 749.23 | 1278 | 1259 | 1240 | 1.465 | 1.33 | 1.211
x1 = 0.3986 | 760.67 | 756.84 | 752.97 | 1271 | 1252 | 1233 | 1.499 | 1.355 | 1.231
x1 = 0.5046 | 765.6 | 761.71 | 757.79 | 1265 | 1246 | 1227 | 1.563 | 1.406 | 1.27
x1 = 0.5974 | 770.7 | 766.77 | 762.79 | 1260 | 1241 | 1222 | 1.667 | 1.487 | 1.338
x1 = 0.7026 | 777.76 | 773.76 | 769.72 | 1255 | 1236 | 1217 | 1.865 | 1.635 | 1.447
x1 = 0.8001 | 785.82 | 781.77 | 777.66 | 1253 | 1233 | 1214 | 2.205 | 1.9 | 1.652
x1 = 0.8994 | 795.9 | 791.84 | 787.71 | 1251 | 1232 | 1213 | 2.786 | 2.347 | 1.998
x1 = 0.9497 | 802.07 | 798.02 | 793.89 | 1251 | 1232 | 1213 | 3.267 | 2.717 | 2.284
x1 = 1 | 809.04 | 805 | 800.9 | 1250 | 1232 | 1214 | 4.001 | 3.273 | 2.708
